What was measured:
[1] = system: Akt, p15INK4B, p16INK4A, caspase-3 in TM4SF5-mediated tumor tissue; assay: Western blot and immunohistochemical staining of tumor tissue from nude mice; type: in vivo
Protocol: (§1) Whole cell lysates from cells under diverse experimental conditions were prepared, as described in the literature (Lee, S. Y. et al., Focal adhesion and actin organization by a cross-talk of TM4SF5 with integrin α2 are regulated by serum treatment, Exp Cell Res, 312, pp. 2983-99, 2006). For example, cells were subjected to electroporation (950 μF, 250 V) with a control GFP, wild-type focal adhesion kinase (FAK), paxillin, p130Cas cDNA. One day after electroporation, cells were treated with TA (20 μM) for the indicated periods. Cells cultured normally or treated with TA at different concentrations for the indicated periods were harvested using RIPA buffer. Control or tumor tissues from nude mice were frozen immediately after surgery using liquid N2. Tissues in the liquid N2 was homogenized using a mortar and pestle, and extracted using 0.1% SDS containing RIPA buffer. Standard Western blots of lysates were performed by using antibody against phospho-Y^397, Y^407, Y^577, Y^861, Y^925 FAK (BioSource International, Inc., Camarillo, Calif.), phospho-Y^416Src, c-Src, p15^INK4B, p16^INK4A (Santa Cruz Biotech., Santa Cruz, Calif.), FAK, p130Cas, paxillin, pY^118paxillin, active caspase-3 (BD Transduct. Lab., San Jose, Calif.), α-tubulin (Sigma, St Louis, Mo.), phopsho-S^473, or T^308Akt, Akt, phospho-Erk1/2, Erk1/2 (Cell Signaling Tech., Danvers, Mass.), and TM4SF5 (homemade).
4-5 week old female nude mice (BALB/cAnNCrjBgi-nu) were purchased from Orient. Co. Ltd. (Seongnam, Korea). The mice were housed in a specific pathogen-free room under controlled temperature and humidity. All animal procedures were performed in accordance with the procedures in Seoul National University Laboratory Animal Maintenance Manual and with IRB agreement. Mice aged 5-6 weeks were injected subcutaneously with 5×10^6 viable SNU449Cp or SNU449T16 cells. Tumor volumes were measured with a caliper and calculated using the following Mathematical Formula 1. When the tumor volume reached 200 mm^3, mice were injected intraperitoneally with 3 mg/kg or 30 mg/kg (body weight) of tiarellic acid (TA) every other day for 30 days. (Width×Length^2)/2 [Mathematical Formula 1]
To evaluate whether tiarellic acid (TA) administration might interfere with TM4SF5 mediated tumor formation in nude mice, the following experiment was performed as described in the literature (Lee S-A et al., TM4SF5-mediated transmodulation between cytosolic p27Kip1 and Rho GTPases and epithelial-mesenchymal transition cause loss of contact inhibition, Cancer Cell, 2007).

[2] = system: TM4SF5 null SNU449Cp cells; assay: Inhibitory effect on cell growth, TM4SF5-null control cells; type: cell-based; conditions: 20 μM, 3 days
Protocol: (§2) After virus infection, pooled stable clones (control SNU449Cp and TM4SF5-expressing SNU449Tp cell clones) and single cell-driven stable clones (TM4SF5-expressing SNU449T16) were prepared by infecting SNU449 hepatocytes (Korean Cell Bank, Seoul, Korea) with retrovirus for empty pLNCX or pLNCX with TM4SF5. Parental and control cells (Cp) were maintained in RPMI-1640/10% FBS/0.25 μg/ml gentamycin (Calbiochem, San Diego, Calif.) without or with 200 μg/ml G418 (A.G. Scientific Inc., San Diego, Calif.), respectively, at 37° C. and 5% CO2. Cells endogenously expressing TM4SF5 or cells endogenously expressing no TM4SF5 (Korean Cell Bank) were maintained in either DMEM-H or RPMI-1640 media with 10% FBS (JBI Inc., Daegu, Korea).

[3] = system: cells with endogenous TM4SF5 expression; assay: Cell number of cell lines with endogenous TM4SF5 expression after TA treatment; type: cell-based; conditions: TA 5 or 20 μM
Protocol: as §2
(§3) Next, to confirm that tiarellic acid (TA) is specific to TM4SF5, cytotoxicity of tiarellic acid (TA) was examined using cells with endogenous TM4SF5 expression. RT-PCR was performed using a primer set described in the following Table 1 under the conditions including 30 cycles of 94° C. for 30 sec, 55° C. for 30 sec, and 72° C. for 30 sec. Diverse cell lines were treated with tiarellic acid (TA) at a concentration of 5 or 20 μM.

[4] = system: focal adhesion molecules in SNU449Cp cells expressing no TM4SF5; assay: Immunoblot of focal adhesion molecule expression and activation, SNU449Cp; type: cell-based
Protocol: as §1, with “(homemade). […]” for “(homemade).”

TM4SF5-expressing cells = assay: Immunofluorescence of focal adhesions and actin, TM4SF5-expressing cells; type: cell-based
Protocol: Cells were treated with DMSO or 20 μM TA for 24 hrs. Then, the cells were plated on 10 μg/ml fibronectin-precoated coverslips and incubated for 2 hrs in the presence of DMSO or 20 μM TA. Subsequently, immunofluorescence staining was performed using pY^397 FAK, pY^118 paxillin, and actin, as described in the literature (Lee, S. Y. et al., Focal adhesion and actin organization by a cross-talk of TM4SF5 with integrin α2 are regulated by serum treatment, Exp Cell Res, 312, pp. 2983-99, 2006). Mounted samples were visualized by a fluorescent microscope (BX51, Olympus, Japan).

[5] = system: focal adhesion molecules in cells lacking TM4SF5; assay: Focal adhesion molecule activation in TM4SF5-null cell lines; type: cell-based; conditions: FIG. 12
Protocol: as §1

TM4SF5 = assay: Effect of TA treatment on TM4SF5 expression of P, Cp, Tp and T16 cells; type: cell-based
[6] = system: focal adhesion molecules in TM4SF5-expressing SNU449Tp cell line; assay: Immunoblot of focal adhesion molecule expression and activation, SNU449Tp; type: cell-based; conditions: FIG. 11
Protocol: as §1, with “(homemade). […]” for “(homemade).”

[7] = system: TM4SF5-null cells including Hek293 and COST fibroblast, MDA-MB-453 breast, SNU638 and SNU668 stomach, and SNU398 liver epithelial cells; assay: Cell number of diverse cell lines without TM4SF5 after TA treatment; type: cell-based; conditions: TA 5 or 20 μM
Protocol: as §2, §3

[8] = system: TM4SF5-expressing cells (SNU449Tp, SNU449T16); assay: Degree of adhesion on fibronectin-precoated dishes, TM4SF5-expressing cells; type: cell-based; conditions: 20 μM TA 24 hr, reseeded on fibronectin 1 hr
Protocol: Thus, it could be thought that TA treatment induces anoikis of TM4SF5-expressing cells. To examine whether TA treatment affected cellular adhesion, the following procedure was performed prior to analysis of TA-meditated cell death, as described in the literature (Yang, X. et al., Palmitoylation supports assembly and function of integrin-tetraspanin complexes, J Cell Biol, 167, pp. 1231-40, 2004).
Cells were treated with 20 μM TA for 24 hr, and the floating cells were collected and reseeded on fibronectin-precoated dishes for 1 hr before determination of the degree of adhesion.

[9] = system: SNU449Cp cells expressing no TM4SF5; assay: Number of floating cells, SNU449Cp; type: cell-based; conditions: TA versus DMSO
Description: FIG. 17 is a graph showing the number of floating SNU449Cp and SNU449Tp cells, after tiarellic acid (TA) treatment for various time periods;

[10] = system: SNU449Tp and SNU449T16 expressing TM4SF5; assay: Analysis of cellular DNA content (sub-G1), TM4SF5-expressing cells; type: cell-based; conditions: 20 μM TA, 24 hr
Description: FIG. 19 is the result of analyzing cellular DNA content, after tiarellic acid (TA) treatment;

[11] = system: focal adhesion kinase (FAK), paxillin, p130Cas in TM4SF5-expressing SNU449T16 cells; assay: Immunoblot of focal adhesion molecule expression and activation, SNU449T16; type: cell-based
Protocol: as §1
To examine which signaling molecule is affected by tiarellic acid (TA), the following procedure was performed, as described in the literature (Lee, S. Y. et al., Focal adhesion and actin organization by a cross-talk of TM4SF5 with integrin α2 are regulated by serum treatment, Exp Cell Res, 312, pp. 2983-99, 2006).
The SNU449 cell lines were treated with tiarellic acid (TA) in a dose- (0, 1, 5, 20 μM) and time-dependent (0, 8, 16, 24, 36 hrs) manner.
The SNU449Cp and SNU449T16 cell lines were treated with tiarellic acid (TA) at varying concentrations (0, 1, 5, 20 μM) for 24 hrs, and then immunoblot assay was performed.

C=C(C)C1CC[C@]2(C)CC[C@]3(C(=O)O)C(CCC4[C@@]5(C)CC[C@H](O)[C@@](C)(CO)C5CC[C@]43C)C12 (stereo partly drawn) [tiarellic acid (TA), 3,23-dihydroxy-20(29)-lupen-27-oic acid]
p15INK4B or p16INK4A CKI levels in tumor tissue ([1]; Western blot, TA administration): increased | immunohistochemical staining for active caspase-3 ([1]; tumor tissue from TA-treated mice): positive | inhibitory effect on cell growth [2]: not observed | growth of cells with endogenous TM4SF5 expression [3]: growth suppression | pErk1/2 ([4]; FIG. 11): slightly increased | FAK and paxillin phosphorylations and p130Cas protein levels ([4]; TA up to 20 μM, 24 hrs): no effect | focal adhesions (TM4SF5-expressing cells; 20 μM TA): lost | immunostaining for pY397FAK or pY118paxillin (TM4SF5-expressing cells; FIG. 13): disassembly of focal adhesion molecules was observed | association between integrin α5 and pY397FAK (TM4SF5-expressing cells; FIG. 14): dissociation | actin organization and stress fibers (TM4SF5-expressing cells; FIG. 15): abnormal actin organization with insignificant stress fibers | inhibitory effects on focal adhesion molecule activation [5]: not | expression level of TM4SF5 (TM4SF5): without affecting | TM4SF5-dependent inhibitory effects on focal adhesion molecules [6]: inhibitory effects | pErk1/2 [6]: slightly increased | proliferation of TM4SF5-null cells [7]: not affected | adhesion [8]: significantly reduced adhesions | number of floating cells [9]: did not affect | sub-G1 populations (cellular DNA content) [10]: significant sub-G1 populations | p130Cas phosphorylation and physical association among FAK, p130Cas, and paxillin ([11]; FIG. 10, cell line not stated): decreased | FAK and paxillin phosphorylation and p130Cas protein levels over time ([11]; SNU449T16, 20 μM TA, 0, 8, 16, 24, 36 hrs): remarkably decreased in a time-dependent manner | FAK and paxillin phosphorylations and p130Cas protein levels ([11]; SNU449T16, 20 μM TA, 24 hrs): reduced

Reference: patent publication US8299049B2, “Compositions comprising an extract of Tiarella polyphylla or compounds isolated therefrom for preventing and treating cancer diseases” (Korea Institute of Bioscience and Biotechnology, priority 2007, dated 2012)
